Data from patent publication US20050064382A1, “Method of prevention of lysosomal leakage in eukaryotic cells by using 6-methyluracil based water-soluble compounds and method of producing thereof” (priority 2002, published 2005).

Assays:
MEL cells [1] = experiment: Mild damage: cells damaged by one freeze/thaw cycle; format: cell-based, mouse; settings: 24 hours
Experimental: Mild Damage: Influence of Glucural on cells damaged by one-freeze/thaw cycle. Cells were treated exactly as above except that they were subjected to one freeze/thaw cycle (in the absence of cryo-protector) prior to incubation at 37° C. for 24 hours.

MEL cells [2] = experiment: Moderate damage: storage three days at −135° C. then growth in 1% DMSO; format: cell-based, mouse; settings: 24 hours
Experimental: The cells were then brought to −135° C. over a two-hour period and stored at this temperature for 3 days. […] The number of cells per ml. is x 10^4, columns represent different assays.

THP-1 cells [3] = experiment: DMSO shock of THP-1 cells, percentage of dead cells; format: cell-based, human
Experimental: Cells were incubated in the presence of 10% DMSO at 37° C. for 90 minutes (tryptan-blue test).

THP-1 cells [4] = experiment: Longer-duration growth of THP-1 cells after DMSO shock and starvation, live cells; format: cell-based, human
Experimental: Growth was measured after the administration of “DMSO Shock” and without a change of medium. […] Trypan-blue test was used: the number of live cells per 0.1 ml (based on 4 counting iterations).

[5] = tested on: neurons from rat embryos brains; experiment: Survival of rat embryo brain neurons after mechanical damage; format: cell-based; settings: for number of live neurons vs culture without Glucural: 500 mkg/ml
From the text: One particularly attractive application of the cytoprotective quality of 6-methyluracil compounds is to extend the life span of primer cell cultures. Primer cell cultures are cell cultures obtained from various tissues. They are used routinely for new drug screening in pharmaceutical industry. The problem associated with many primer cell cultures is their general inability to propagate and grow, leading to their early death and therefore limiting their use in drug research. For example, a rat embryo brain neuron cell culture has about 80% mortality in 12-14 days.
The following is an example of the difficulty in maintaining the survival rate of primer cell cultures. […] The term “growing” of these primer cell cultures means maintaining their survival for a 10-15 day period. But these cell cultures are very valuable as test objects and are commonly used for the initial testing of new drugs (drug screening). Glucural was tested on the neurons from rat embryos brains that were transferred into cell cultures. The viability of these neurons was tested during 2 stages of the production of embryonic neuron cell cultures: 1) mechanical disassembly and washing, and 2) the “growing” of the cell culture.
After 7 days, this ratio increased to nearly triple as shown on FIGS. 1 and 2.

[6] = tested on: skeletal (rear leg) muscle homogenates; experiment: Proteolytic index of muscle homogenates (autoproteolysis, Ninhidrin); format: biochemical, rat
Experimental: In-vitro tests were performed on the skeletal (rear leg) muscles of 17 white laboratory rats. Preliminary research efforts determined 1) the preparation method for muscle homogenates, 2) estimation of level of the proteolytic activity by measuring for the concentration of free amino acids, a result of protein cleavage, and 3) the optimal time of authoproteolysis.
The preparation of muscle homogenates. Efforts were made to disassemble the muscle tissue gently, without disruption of the lysosomes, though with sufficient strength to ensure a homogeneous suspension of muscle cells in physiological solution (PBS). Potter's homogenator was used with a glass barrel and a Teflon pestle. Determination of the optimal treatment was based on experimental data and the activity of the proteases during the incubation of the homogenates at 37° C. If lysosomes were damaged during preparation of the homogenates, then there was no increase in concentration of free amino acids during incubation. Undamaged lysosomes in the homogenate would continue their proteolytic activity during incubation. For the best preparation of the homogenate, the muscles were separated from the connecting tissue, weighed and cut up with scissors in a Petri dish for 10 minutes. […]
After the incubation of samples, the protein concentration was estimated by the standard Bio-Rad method. To estimate proteolytic activity based on the concentration of free amino acids found in the sample, three methods were tried: 1) absorbance at 280 nm, 2) concentration of amino acid tyrosine by estimation with Folin reagent, and 3) concentration of end amino groups with Ninhidrin reagent. Only method 3 provided accurate results, so the proteolytic index was measured based on the Ninhidrin reagent. […] Samples were boiled in a water bath for 10 minutes, chilled and the absorbance at 560 nm was measured. […] Concentrations of free amino acids and protein in mg/ml could therefore be determined for both cases. The ratio of free amino acids per proteins in the sample was calculated as the proteolytic index. […]

Drosophila = experiment: Sterol-deficit diet and both drugs: frequency of X-chromosomes loss in late oocytes of Drosophila; format: in vivo
From the text: The classic genetic model was used, based on the well-known method: the frequency of mutations in Drosophila (fruit flies) caused by X-rays. It is known that the frequency of these mutations can be increased by adding to the food of females certain membrane destabilizers (we used Polyene Antibiotics—Amphotericin B), or by the use of a special diet. Like all insects, Drosophila obtain all of their sterols from food (yeast for Drosophila). A special diet rich with Nistatin (Polyene antibiotic) resistant yeast was used.
The frequency of the loss of x-chromosomes (males excluded) was measured after crossing with the […]. Females were given a dose of 1000 Roentgens 5 days before being given the food additive or “special diet”.
Influence of sterol-deficit diet and both drugs on the frequency of X-chromosomes loss in late oocytes of Drosophila. Groups 1-4 received yeast of wild type, groups 5,6 (diet) received nistatin resistant yeasts meaning groups 5,6 had abnormal sterols in membranes: […]

For “complex of 2,4-dihydroxy-6-methylpyrimidine with N-methyl-D-glucamine [Glucural]”, which “number of cells per ml, Mild damage” value (MEL cells [1]; Glucural 25 mkg/ml) is on record?
The value was 36 x 10^4.

What about the “number of cells per ml, Mild damage” value (MEL cells [1]; Glucural 50 mkg/ml) of the same substance?
The value was 53 ± 5 x 10^4.

What about the “number of cells per ml, Mild damage” value (MEL cells [1]; Glucural 100 mkg/ml) of the same substance?
Its value is 40 ± 1 x 10^4.

What about the “number of cells per ml, Mild damage” value (MEL cells [1]; Glucural 200 mkg/ml) of the same substance?
Its value is 45 ± 0 x 10^4.

And the “number of cells per ml, Mild damage” value (MEL cells [1]; Glucural 400 mkg/ml)?
Its value is 31 ± 1 x 10^4.

And the “number of cells per ml, Moderate damage” value (MEL cells [2]; Glucural 25 mkg/ml)?
The value was 58 ± 3 x 10^4.

And the “number of cells per ml, Moderate damage” value (MEL cells [2]; Glucural 50 mkg/ml)?
The value was 76 ± 1 x 10^4.

And the “number of cells per ml, Moderate damage” value (MEL cells [2]; Glucural 100 mkg/ml)?
The value was 82 ± 1 x 10^4.

What about the “number of cells per ml, Moderate damage” value (MEL cells [2]; Glucural 200 mkg/ml) of the same substance?
Its value is 163 ± 3 x 10^4.

What about the “percentage of dead THP-1 cells” value (THP-1 cells [3]; Control + Glucural 25 mkg/ml, assay 1) of the same substance?
Its value is 3.9 ± 0.7%.

What about the “percentage of dead THP-1 cells” value (THP-1 cells [3]; Control + Glucural 25 mkg/ml, assay 2) of the same substance?
Its value is 5.8 ± 3.1%.

What about the “percentage of dead THP-1 cells” value (THP-1 cells [3]; Control + Glucural 25 mkg/ml, assay 4) of the same substance?
Its value is 3.0 ± 1.0%.

And the “percentage of dead THP-1 cells” value (THP-1 cells [3]; DMSO shock (10% DMSO, 37° C., 90 minutes) + Glucural 25 mkg/ml, assay 1)?
Its value is 4.1 ± 1.6%.

And the “percentage of dead THP-1 cells” value (THP-1 cells [3]; DMSO shock (10% DMSO, 37° C., 90 minutes) + Glucural 25 mkg/ml, assay 2)?
Its value is 7.7 ± 3.4%.

And the “percentage of dead THP-1 cells” value (THP-1 cells [3]; DMSO shock (10% DMSO, 37° C., 90 minutes) + Glucural 25 mkg/ml, assay 3)?
Its value is 4.6 ± 2.2%.

What about the “percentage of dead THP-1 cells” value (THP-1 cells [3]; DMSO shock (10% DMSO, 37° C., 90 minutes) + Glucural 25 mkg/ml, assay 4) of the same substance?
Its value is 5.0 ± 2.3%.

What about the “optimal dose for THP-1 cells” value (THP-1 cells [4]) of the same substance?
Its value is 25 mkg/ml.

And the “number of live cells per 0.1 ml” value (THP-1 cells [4]; B Control + Glucural 25 mkg/ml, assay #1, 5 days growing)?
The value was 241 ± 24 per 0.1 ml.

And the “number of live cells per 0.1 ml” value (THP-1 cells [4]; B Control + Glucural 25 mkg/ml, assay #3, 4 days growing)?
The value was 136 ± 5 per 0.1 ml.

And the “number of live cells per 0.1 ml” value (THP-1 cells [4]; B Control + Glucural 25 mkg/ml, assay #4, 4 days growing)?
Its value is 160 ± 22 per 0.1 ml.

What about the “number of live cells per 0.1 ml” value (THP-1 cells [4]; D DMSO shock + Glucural 25 mkg/ml, assay #1, 5 days growing) of the same substance?
Its value is 228 ± 48 per 0.1 ml.

What about the “number of live cells per 0.1 ml” value (THP-1 cells [4]; D DMSO shock + Glucural 25 mkg/ml, assay #2, 6 days growing) of the same substance?
The value was 184 ± 19 per 0.1 ml.

What about the “number of live cells per 0.1 ml” value (THP-1 cells [4]; D DMSO shock + Glucural 25 mkg/ml, assay #3, 4 days growing) of the same substance?
The value was 137 ± 6 per 0.1 ml.

What about the “number of live cells per 0.1 ml” value (THP-1 cells [4]; D DMSO shock + Glucural 25 mkg/ml, assay #4, 4 days growing) of the same substance?
Its value is 222 ± 42 per 0.1 ml.

And the “increase of life span of rat embryo brain neuron cell culture” value [5]?
Its value is “more than two fold”.

What about the “number of live neurons vs culture without Glucural” value ([5]; after 7 days) of the same substance?
The value was “nearly triple”.

And the “number of live neurons vs culture without Glucural” value ([5]; after one day)?
The value was “more than double”.

And the “decrease of proteolytic activity in muscles” value ([6]; Glucural 50 mkg/ml (Group 4))?
Its value is 36%.

And the “decrease of proteolytic activity in muscles” value ([6]; Glucural 100 mkg/ml (Group 5))?
The value was 51%.

And the reduction of autoproteolysis ([6]; Glucural less than 50 mkg/ml)?
Its reduction of autoproteolysis is “not sufficient to reduce autoproteolysis”.

And the “Protective Effect of Glucural, %” value (Drosophila; Amphotericin B/Glucural vs Amphotericin B)?
Its value is 26%.

What about the “Frequency of X-Chromosomes loss, %” value (Drosophila; Diet (nistatin resistant yeasts)) of the same substance?
The value was 4.1 ± 0.33%.

And the “Protective Effect of Glucural, %” value (Drosophila; Diet/Glucural vs Diet)?
Its value is 27%.

And the “Protective Effect of Glucural, %” value (Drosophila; Glucural vs Control)?
The value was 50%.

What about the “Frequency of X-Chromosomes loss, %” value (Drosophila; yeast of wild type) of the same substance?
Its value is 0.9 ± 0.14%.
